Experimental data reported in patent publication US9833445B2, “5-deutero-2,4-thiazolidinedione derivatives and compositions comprising and methods of using the same” (DeuteRx, LLC, priority 2013, dated 2017).

Legend:
[1] = In vitro stability (D/H exchange, enantiomerization, degradation) in CD-1 mouse plasma; assay type: in vitro ADME; details: 37° C.; for half-life: CD-1, mouse, plasma (K3EDTA), calculated half-life
Experimental: (§1) (+)-5-({p-[2-(5-ethylpyridin-2-yl)-2-oxoethoxy]phenyl}methyl)-1,3-thiazolidine-2,4-dione, (−)-5-({p-[2-(5-ethylpyridin-2-yl)-2-oxoethoxy]phenyl}methyl)-1,3-thiazolidine-2,4-dione, rac-5-({p-[2-(5-ethylpyridin-2-yl)-2-oxoethoxy]phenyl}methyl)-(5-^2H))-1,3-thiazolidine-2,4-dione (>98% deuterium at C-5 of the 1,3-thiazolidine-2,4-dione moiety; 50:50 racemic mixture of (+)- and (−)-deuterated enantiomers) were incubated in CD-1 mouse plasma (K3EDTA as anticoagulant) or human plasma (K3EDTA as anticoagulant) at 37° C. in duplicates. Aliquots (50 μL) were removed at t=0, 0.0833, 0.25, 0.5, 1, 2, 4, 8, and 16 hours and added to micro centrifuge tubes containing 10 μL of 5% w/v zinc sulfate heptahydrate in water. Samples were frozen and stored until the study was complete. After thawing on ice, 10 μL of internal standard (ISTD) spiking solution (d4-pioglitazone in acetonitrile/water 1:1) were added followed by 250 μL of methyl t-butyl ether (MTBE). A 100 μL aliquot of the organic layer was evaporated after homogeneization and reconstituted in 100 μL of 95:5 acetonitrile/0.1% formic acid in water (v/v).
(§2) The samples were analyzed semi-quantitatively by LC/MS-MS with elution on a chiral column (Daicel ChiralPak ID-3) for the separation of enantiomers (isocratic method of 5:95 v/v 0.1% formic acid in water and acetonitrile). Peak areas for the protonated and deuterated enantiomers were calculated and normalized to the area of the ISTD. Peak areas for the deuterated enantiomers (+)-5-({p-[2-(5-ethylpyridin-2-yl)-2-oxoethoxy]phenyl}methyl)-(5-2H)-1,3-thiazolidine-2,4-dione and (−)-5-({p-[2-(5-ethylpyridin-2-yl)-2-oxoethoxy]phenyl}methyl)-(5-^2H)-1,3-thiazolidine-2,4-dione were further corrected for the isotopic peak of the corresponding protonated enantiomer, (+)- and (−)-5-({p-[2-(5-ethylpyridin-2-yl)-2-oxoethoxy]phenyl}methyl)-1,3-thiazolidine-2,4-dione respectively, if present. Corrected data were analyzed and plotted using Microsoft Excel 2013 (Microsoft Corp, Redmond, Wash.) and the Excel Solver.
(§3) Scheme 3 illustrates the possible reactions in a solution of a deuterated racemate. The deuterium at the chiral center of both enantiomers, d+ and d−, can be depleted by D/H exchange to give both protonated enantiomers, h+ and h− with rate constants kD++, kD+−, kD−+, kD−. At the same time, the protonated enantiomers h+ and h−, can exchange, with enantiomerization rate constants k+− and k−+. All four compounds can also degrade with potentially different degradation rate constants kh+d, kh−d, kd+d, kd−d for enantiomers h+, h−, d+, and d−, respectively.
(§4) Human plasma stability data and mouse plasma stability data were analyzed independently. Concurrent analysis of the data for h+, h−, and deuterated racemate was performed. Calculated concentrations were obtained through numerical approximation of differential equations (1) and (2) for the stability studies of h+ and h- and equations (3) to (6) for the stability study of deuterated racemate (50:50 d+:d−) by the Euler method (equation (7)). The step between calculated time points was minimized in order to minimize the local error (proportional to the square of the step size) and the global error (proportional to the step size). […] Data analysis was performed in Microsoft Excel 2013, using the Solver Generalized Reduced Gradient Nonlinear method with central derivatives to minimize the sum of sums of weighted Δ^2, square of difference between ISTD-normalized experimental data and calculated value, divided by the calculated value.
(§5) [formula] [formula] [formula] [formula] where [h+], [h−], [d+], [d−] are the concentrations on both protonated and deuterated enantiomers, k+− and k−+ are the rate constants for the enantiomerization reactions h+ to h− and h− to h+ respectively, kD++, kD+−, kD−+, and kD− are the rate constants for the D/H exchange reactions d+ or d− to h+ or h−, and kd is the rate constant for the degradation of all four compounds. […]

[2] = In vitro stability (D/H exchange, enantiomerization, degradation) in human plasma; assay type: in vitro ADME; details: 37° C.; for half-life: human, plasma (K3EDTA), calculated half-life
Experimental: as §1, §2, §3, §4, §5

[3] = read-out: t1/2 degradation (converted)
[4] = read-out: t1/2 enantiomerization −+ (h− to h+) (converted)
[5] = read-out: t1/2 enantiomerization +− (h+ to h−) (converted)

## [2H]C1(Cc2ccc(OCC(=O)c3ccc(CC)cn3)cc2)SC(=O)NC1=O (racemic) [d-rac, rac-5-({p-[2-(5-ethylpyridin-2-yl)-2-oxoethoxy]phenyl}methyl)-(5-^2H)-1,3-thiazolidine-2,4-dione]
[1]; fitted to Equations 1 to 6
  k d (rate constant, degradation; assumed equal for all four compounds): 4.25e-06 s⁻¹
[1]; [3]
  half-life: 45.4 h
[2]; fitted to Equations 1 to 6
  k d (rate constant, degradation; assumed equal for all four compounds): 1.05e-06 s⁻¹
[2]; [3]
  half-life: 184 h

## CCc1ccc(C(=O)COc2ccc(CC3SC(=O)NC3=O)cc2)nc1 (single isomer, unassigned; (-)) [h−, (−)-5-({p-[2-(5-ethylpyridin-2-yl)-2-oxoethoxy]phenyl}methyl)-1,3-thiazolidine-2,4-dione]
[1]; fitted to Equations 1 to 6
  k −+ (rate constant, enantiomerization h− to h+): 0.594 h⁻¹
[1]; [4]
  half-life: 1.2 h
[2]; fitted to Equations 1 to 6
  k −+ (rate constant, enantiomerization h− to h+): 0.359 h⁻¹
[2]; [4]
  half-life: 1.9 h

## CCc1ccc(C(=O)COc2ccc(CC3SC(=O)NC3=O)cc2)nc1 (single isomer, unassigned; (+)) [h+, (+)-5-({p-[2-(5-ethylpyridin-2-yl)-2-oxoethoxy]phenyl}methyl)-1,3-thiazolidine-2,4-dione]
[1]; fitted to Equations 1 to 6
  k +− (rate constant, enantiomerization h+ to h−): 0.504 h⁻¹
  k d (rate constant, degradation; assumed equal for all four compounds): 4.25e-06 s⁻¹
[1]; [3]
  half-life: 45.4 h
[1]; [5]
  half-life: 1.4 h
[2]; fitted to Equations 1 to 6
  k +− (rate constant, enantiomerization h+ to h−): 0.308 h⁻¹
  k d (rate constant, degradation; assumed equal for all four compounds): 1.05e-06 s⁻¹
[2]; [3]
  half-life: 184 h
[2]; [5]
  half-life: 2.2 h
